The C3SDB collision cross section collection
Several values for one entry are separate records, joined by “and”; a condition that tells them apart may be missing. Equal entries are not always repeated. Blank lines part the entries; values can stand above or below the compound they belong to.

Assays:
[1] = instrument: DT, single field
[2] = [M+NH4]+; instrument: DT; single field, calibrated with Agilent tune mix (Agilent)
[3] = [M+H]+; instrument: TW
[4] = [M+Na]+; instrument: DT; stepped-field
[5] = instrument: DT, single field, calibrated with Agilent tune mix (Agilent)

- collision cross section (N2) ([1]; [M+NH4]+): 334.9 Å² and 337.31 Å² and 332.94 Å²
Compound: CCCCC/C=C\CCCCCCCC(=O)OC[C@H](COC(=O)CCCCCCCCCCCCCCCCCCC)OC(=O)CCCCCCCCCCCCCCCCCCC [TG(55:1)]

- collision cross section (N2) [2]: 307.8 Å²
- collision cross section (N2) ([1]; [M+NH4]+): 308.33 Å² and 309.79 Å² and 313.23 Å²
- collision cross section (N2) ([1]; [M+Na]+): 308.93 Å²
Compound: CCCCC/C=C\CCCCCCCC(=O)OC[C@H](COC(=O)CCCCCCC/C=C\CCCCCCCCC)OC(=O)CCCCCCC/C=C\CCCCC [TG(49:3)]

- collision cross section (N2) [2]: 326 Å²
- collision cross section (N2) ([1]; [M+NH4]+): 328.36 Å² and 330.81 Å² and 326.47 Å²
Compound: CCCCC/C=C\C/C=C\C/C=C\C/C=C\CCCCCC(=O)OC[C@@H](COC(=O)CCCCCCCCCCC)OC(=O)CCCCCCCCCCCCCCCCCCCC [TG(55:4)]

- collision cross section (N2) [2]: 325.6 Å²
- collision cross section (N2) ([1]; [M+NH4]+): 323.28 Å² and 324.75 Å²
Compound: CC/C=C\C/C=C\C/C=C\C/C=C\C/C=C\CCCC(=O)OC[C@@H](COC(=O)CCCCCCCCCCCCCCCCC)OC(=O)CCCC/C=C\C/C=C\C/C=C\CCCCC [TG(56:8)]

- collision cross section (N2) ([1]; [M+Na]+): 317.97 Å² and 320.06 Å²
Compound: CCCCCCCCC/C=C\CCCCCCCC(=O)OC[C@@H](COC(=O)CCCCCCCCCCCCCCC)OC(=O)CCCCCCCCCCCCCCC [TG(51:1)]

- collision cross section (N2) [2]: 339.4 Å²
- collision cross section (N2) ([1]; [M+NH4]+): 344.42 Å²
Compound: CCCCC/C=C\C/C=C\C/C=C\CCCCCCCCC(=O)OC[C@@H](COC(=O)CCCCCCCCCCCCCCCCC)OC(=O)CCCCCCCCC/C=C\C/C=C\CCCCC [TG(60:5)]

- collision cross section (N2) [2]: 327.2 Å²
- collision cross section (N2) ([1]; [M+NH4]+): 327.44 Å²
Compound: CC/C=C\C/C=C\C/C=C\C/C=C\C/C=C\CCCCCC(=O)OC[C@@H](COC(=O)CCCCCCCCCCCCCCC)OC(=O)CCC/C=C\C/C=C\C/C=C\C/C=C\C/C=C\CC [TG(58:10)]

- collision cross section (N2) [2]: 332.8 Å²
- collision cross section (N2) ([1]; [M+Na]+): 332.96 Å²
Compound: CCCCCCCCCC/C=C\CCCCCCCCCC(=O)OC[C@@H](COC(=O)CCCCCCCCCCC)OC(=O)CCCCCCCCC/C=C\CCCCCCCCCC [TG(56:2)]

- collision cross section (N2) [2]: 319.9 Å²
- collision cross section (N2) ([1]; [M+Na]+): 316.05 Å² and 318.28 Å²
Compound: CC/C=C\C/C=C\C/C=C\C/C=C\CCCCC(=O)O[C@H](COC(=O)CCCCCCC/C=C\CCCCCCC)COC(=O)CCCCCCC/C=C\CCCCCCCCC [TG(54:6)]

- collision cross section (N2) [2]: 328.4 Å²
- collision cross section (N2) ([1]; [M+Na]+): 325.86 Å² and 328.61 Å²
Compound: CCCC/C=C\CCCCCCCC(=O)OC[C@H](COC(=O)CCCCCCCCCCCCCCCCCCC)OC(=O)CCCCCCCCCCCCCCCCCCC [TG(54:1)]

- collision cross section (N2) [2]: 317.4 Å²
- collision cross section (N2) ([1]; [M+NH4]+): 317.8 Å² and 320.46 Å² and 322.68 Å²
Compound: CCCCC/C=C\C/C=C\C/C=C\C/C=C\CCCCCC(=O)OC[C@@H](COC(=O)CCCCCCCCCCCCC)OC(=O)CCCCCCC/C=C\CCCCCCC [TG(53:5)]

- collision cross section (N2) ([1]; [M+NH4]+): 340.07 Å² and 342.55 Å²
Compound: CCCCCCCCC/C=C\CCCCCCCC(=O)OC[C@@H](COC(=O)CCCCCCCCCCCCCCCCCC)OC(=O)CCCCCCCCCCCCCCCCCC [TG(57:1)]

- collision cross section (N2) [2]: 336.8 Å²
- collision cross section (N2) ([1]; [M+NH4]+): 339.23 Å² and 342.34 Å² and 337.3 Å²
Compound: CCCCC/C=C\C/C=C\C/C=C\CCCCCCC(=O)O[C@H](COC(=O)CCCCCCCCCCCCCCC)COC(=O)CCCCCCCCCCCCCCCCCCCCC [TG(58:3)]

- collision cross section (N2) [3]: 136.19 Å²
- collision cross section (N2) [4]: 164.17 Å²
Compound: c1ccc2[nH]c(-c3cscn3)nc2c1 [Thiabendazole]

- collision cross section (N2) ([1]; [M+Na]+): 315.05 Å² and 316.8 Å²
Compound: CCCCCCCCCC/C=C\CCCCCCCCCC(=O)OC[C@@H](COC(=O)CCCCCCCCCCCCC)OC(=O)CCCCCCCCCCCCC [TG(50:1)]

- collision cross section (N2) [2]: 327.5 Å²
- collision cross section (N2) ([1]; [M+NH4]+): 330.49 Å² and 333.23 Å² and 328.28 Å²
Compound: CCCCC/C=C\CCCCCCCC(=O)OC[C@H](COC(=O)CCCCCCCCC/C=C\CCCCCCCC)OC(=O)CCCCCCCCC/C=C\CCCCCCCC [TG(55:3)]

- collision cross section (N2) [2]: 326.5 Å²
- collision cross section (N2) ([1]; [M+NH4]+): 324.13 Å² and 326.41 Å² and 329.85 Å²
- collision cross section (N2) ([1]; [M+Na]+): 322.77 Å² and 324.86 Å²
Compound: CCCC/C=C\CCCCCCCC(=O)OC[C@H](COC(=O)CCCCCCCCC/C=C\CCCCCCCC)OC(=O)CCCCCCCCC/C=C\CCCCCCCC [TG(54:3)]

- collision cross section (N2) ([1]; [M+NH4]+): 340.53 Å² and 343 Å²
Compound: CCCCC/C=C\C/C=C\C/C=C\CCCCCCCCC(=O)OC[C@@H](COC(=O)CCCCCCCCCCCCCCCCC)OC(=O)CCCCCCC/C=C\CCCCCCCCC [TG(59:4)]

- collision cross section (N2) [2]: 323.4 Å²
- collision cross section (N2) ([1]; [M+NH4]+): 323.2 Å² and 325.31 Å²
- collision cross section (N2) ([1]; [M+Na]+): 323.38 Å²
Compound: CCCCCCCCCCCCCCCCCCCC(=O)OC[C@@H](COC(=O)CCCCCCCCCCC)OC(=O)CCCCCCCCCCCCCCCCCCC [TG(52:0)]

- collision cross section (N2) ([1]; [M+NH4]+): 339.13 Å²
Compound: CCCCC/C=C\C/C=C\C/C=C\C/C=C\CCCC(=O)O[C@@H](COC(=O)CCCCCCCCCCC/C=C\C/C=C\CCCCC)COC(=O)CCCCCCCCCCCCCCCC [TG(59:6)]

- collision cross section (N2) ([1]; [M+NH4]+): 342.62 Å² and 345.63 Å² and 341.8 Å²
Compound: CCCC/C=C\CCCCCCCC(=O)OC[C@H](COC(=O)CCCCCCCCCCCCCCCCCCCCC)OC(=O)CCCCCCCCCCCCCCCCCCCCC [TG(58:1)]

- collision cross section (N2) ([1]; [M+NH4]+): 321.77 Å²
Compound: CC/C=C\C/C=C\C/C=C\CCCCCCCC(=O)O[C@@H](COC(=O)CCC/C=C\C/C=C\C/C=C\C/C=C\CCCCC)COC(=O)CCCCCCC/C=C\C/C=C\CCCCC [TG(56:9)]

- collision cross section (N2) ([1]; [M+Na]+): 319.33 Å² and 321.38 Å²
Compound: CCCCC/C=C\CCCCCCCC(=O)OC[C@H](COC(=O)CCCCCCC/C=C\CCCCCCCCC)OC(=O)CCCCCCC/C=C\CCCCCCCCC [TG(53:3)]

Further lines, the compound ahead of its results:

Compound: CCCCC/C=C\C/C=C\CCCCCCCC(=O)O[C@@H](CO)COC(=O)CCCCCCCCCCCC [DG(31:2)]
- collision cross section (N2) ([1]; [M+NH4]+): 249.72 Å²

Compound: CCCCCC/C=C\CCCCCCCC(=O)OC[C@@H](COC(=O)CCCCCCCCCCC)OC(=O)CCCCCCCCCCC [TG(40:1)]
- collision cross section (N2) ([1]; [M+NH4]+): 282.64 Å² and 284.9 Å²
- collision cross section (N2) ([1]; [M+Na]+): 280.45 Å² and 283.77 Å²

Compound: CCCC/C=C\C/C=C\CCCCCCCC(=O)O[C@@H](CO)COC(=O)CCCCCCCCCCCCCCCC [DG(34:2)]
- collision cross section (N2) [2]: 257.9 Å²
- collision cross section (N2) ([1]; [M+NH4]+): 257.59 Å² and 259.54 Å²

Compound: CCCCC/C=C\C/C=C\C/C=C\CCCCCCCCC(=O)O[C@@H](CO)COC(=O)CCCCCCCCCCCCC [DG(36:3)]
- collision cross section (N2) ([1]; [M+NH4]+): 261.08 Å²

Compound: CCCCCCCCCC/C=C\CCCCCCCCCC(=O)OC[C@@H](COC(=O)CCCCCCCCCCC)OC(=O)CCCCCCCCCCC [TG(46:1)]
- collision cross section (N2) ([1]; [M+Na]+): 302.27 Å² and 304.44 Å²

Compound: C[C@]12CCC(=O)C=C1CC[C@@H]1[C@@H]2C(=O)C[C@@]2(C)[C@H]1CC[C@]2(O)C(=O)CO [Cortisone]
- collision cross section (N2) [3]: 184 Å²
- collision cross section (N2) ([5]; [M+H]+): 188.6 Å²
- collision cross section (N2) ([5]; [M-H2O-H]-): 180.07 Å²

Compound: CCCCCCCCCC/C=C\CCCCCCCCCC(=O)OC[C@@H](COC(=O)CCCCCCCCCCCC)OC(=O)CCCCCCCCCCCC [TG(48:1)]
- collision cross section (N2) [2]: 310.9 Å²
- collision cross section (N2) ([1]; [M+Na]+): 308.88 Å² and 310.77 Å²

Compound: CCCCCCCC/C=C\CCCCCCCCCC(=O)O[C@@H](CO)COC(=O)CCCCCCCCCCC [DG(32:1)]
- collision cross section (N2) ([1]; [M+NH4]+): 255.8 Å²

Compound: CCCCCCCCCCCCC=CCC=CCC=CCC=CCC(=O)N[C@@H](COP(=O)([O-])OCC[N+](C)(C)C)[C@H](O)CC=CCCCCCCCCCCCC [SM(43:5)]
- collision cross section (N2) ([1]; [M+H]+): 301.97 Å²

Compound: CCCCCCCC/C=C\CCCCCCCC(=O)OC[C@@H](COC(=O)CCCCCCCCCCC)OC(=O)CCCCCCCCCCC [TG(42:1)]
- collision cross section (N2) [2]: 288.5 Å²
- collision cross section (N2) ([1]; [M+NH4]+): 289.72 Å² and 292.07 Å² and 292.03 Å²
- collision cross section (N2) ([1]; [M+Na]+): 288.53 Å² and 291.03 Å²

Compound: CCCCCCC/C=C\CCCCCCCC(=O)OC[C@@H](COC(=O)CCCCCCCCCCC)OC(=O)CCCCCCC/C=C\CCCCCCC [TG(46:2)]
- collision cross section (N2) [2]: 300.4 Å²
- collision cross section (N2) ([1]; [M+NH4]+): 300.67 Å² and 303.01 Å²
- collision cross section (N2) ([1]; [M+Na]+): 299.74 Å² and 302.02 Å²

Compound: CCCCC/C=C\C/C=C\C/C=C\C/C=C\CCCC(=O)O[C@@H](CO)COC(=O)CCCC/C=C\C/C=C\C/C=C\CCCCC [DG(38:7)]
- collision cross section (N2) ([1]; [M+NH4]+): 259.31 Å²

Compound: CCCC/C=C\CCCCCCCC(=O)OC[C@H](CO)OC(=O)CCCCC/C=C\C/C=C\C/C=C\C/C=C\CCCCC [DG(36:5)]
- collision cross section (N2) ([1]; [M+NH4]+): 254.91 Å²

Compound: CC/C=C\C/C=C\C/C=C\C/C=C\C/C=C\CCCCCC(=O)O[C@@H](CO)COC(=O)CCCC/C=C\C/C=C\C/C=C\CCCCC [DG(40:8)]
- collision cross section (N2) ([1]; [M+NH4]+): 266.74 Å²

Compound: C[C@@H]1C[C@H]2[C@@H]3C[C@H](F)C4=CC(=O)C=C[C@]4(C)[C@@]3(F)[C@@H](O)C[C@]2(C)[C@@]1(O)C(=O)CO [Flumethasone]
- collision cross section (N2) [3]: 193.2 Å²

Compound: CNC(=O)ON=CC(C)(C)S(C)=O (configuration not stated) [Aldicarb sulfoxide]
- collision cross section (N2) [3]: 145.4 Å²

Compound: CON(C)C(=O)Nc1ccc(Cl)cc1 [Monolinuron]
- collision cross section (N2) [3]: 142.9 Å²

Compound: CON(C)C(=O)Nc1ccc(Br)c(Cl)c1 [Chlorbromuron]
- collision cross section (N2) [3]: 152.25 Å²

Compound: CCOC(=O)OC1=C(c2cc(C)ccc2C)C(=O)NC12CCC(OC)CC2 (configuration not stated) [Spirotetramat]
- collision cross section (N2) [3]: 189.99 Å²

Compound: O=C(NC(=O)c1c(F)cccc1F)Nc1ccc(Oc2ccc(C(F)(F)F)cc2Cl)cc1F [Flufenoxuron]
- collision cross section (N2) [3]: 204.46 Å²

Compound: CC(C)(C)NCC(O)c1cc(Cl)c(N)c(C(F)(F)F)c1 (configuration not stated) [Mabuterol]
- collision cross section (N2) [3]: 168.4 Å²

Compound: CCCCC/C=C\C/C=C\C/C=C\CCCCC(=O)OC[C@H](CO)OC(=O)CCCCCCC/C=C\CCCCCCCC [DG(36:4)]
- collision cross section (N2) ([1]; [M+NH4]+): 257.21 Å²

Compound: C=C1C[C@@]23CC[C@H]4[C@@](C)(CCC[C@@]4(C)C(=O)O[C@@H]4O[C@H](CO)[C@@H](O)[C@H](O)[C@H]4O)[C@@H]2CC[C@]1(O[C@@H]1O[C@H](CO)[C@@H](O)[C@H](O)[C@H]1O[C@@H]1O[C@@H](C)[C@H](O)[C@@H](O)[C@H]1O)C3 [Dulcoside A]
- collision cross section (N2) [3]: 270.75 Å²
